Measurements reported in US4891358A, “ANE derivatives with novel bridging” (Bio-Mega Inc., priority 1987, dated 1990).
Numbered stars: 1 amine (or outer) side, 2 acyl side, 3 side chain; on linkers, the order of the positions; unused ones are H or OH. Bridge positions count the residues as written; N and C are the ends. Square brackets hold non-standard residues; d marks the D form. Peptide text beside a SMILES is read from it. Pen = CC(C)(S)[C@H](N)C(=O)O; X1 = O=C(CCC[*:2])[*:1]

Tested on: conscious normotensive rat
Test: Diuretic assay in the conscious normotensive rat
Assay type: in vivo
Details: for URINE VOLUME: 0.5 μg/kg/min infusion via femoral vein, ratio of treated over control, volume in 10 minute sample (average of three consecutive samples); for ELECTROLYTE EXCRETION K^+ / ELECTROLYTE EXCRETION Na^+: 0.5 μg/kg/min infusion, treated minus controls, average of three samples
Excerpt: More explicitly, normotensive male rats (300-325 g) were anesthetized with halothane. Following an application of lidocaine 2% solution, the femoral artery was cannulated for measurements of blood pressure and heart rate, and the femoral vein was cannulated for the administration of the test compounds. The bladder was also cannulated to measure urine flow. After surgery was completed, the animals were placed in restraining cages and allowed to recover from anesthesia for a period of one hour. A Ringer's solution infusion was started at a rate of 1.2 ml per hour. Three control urine samples were collected at 10 minute intervals. The test compound was then infused at a rate varying from 0.5 to 3 μg/kg/min over 30 minutes. Three test samples of urine were collected at 10 minute intervals during the compound infusion. After the test compound had been infused for 30 minutes and 3 more urine samples were collected. The volume of each urine sample was determined and the electrolyte concentration was measured using a biomedical electrolyte analyser. The animals served as their own controls. The systolic and diastolic blood pressures and the heart rate were determined during each urine collection period.

Row | Compound | URINE VOLUME | ELECTROLYTE EXCRETION K^+ | ELECTROLYTE EXCRETION Na^+
1 | CC[C@H](C)[C@@H]1NC(=O)[C@H](CCCNC(=N)N)NC(=O)[C@H](CC(=O)O)NC(=O)[C@H]([C@@H](C)CC)NC(=O)[C@H](CCCNC(=N)N)NC(=O)CNC(=O)CNC(=O)[C@H](Cc2ccccc2)NC(=O)CCCSC(C)(C)[C@@H](C(=O)N[C@@H](CC(N)=O)C(=O)N[C@@H](CO)C(=O)N[C@@H](Cc2ccccc2)C(=O)N[C@@H](CCCNC(=N)N)C(=O)N[C@@H](Cc2ccc(O)cc2)C(=O)O)NC(=O)CNC(=O)[C@H](CC(C)C)NC(=O)CNC(=O)[C@H](CO)NC(=O)[C@H](CCC(N)=O)NC(=O)[C@H](C)NC(=O)CNC1=O [rat[(CH2 CH2 CH2 CO)^105, Pen^121]-ANF(105-126)] (FGGRIDRIGAQSGLG[Pen]NSFRY-OH; linker N-16 via X1) | 3.0 | 24.8 | 17.9
2 | rat [(CH2 -CH2 CH2 CO)^105]ANF-(105-126) [rat[(CH2 CH2 CH2 CO)^105]-ANF(105-126)] | 2.8 | 10.2 | 34.0
